Results reported in PubChem BioAssay AID1963865 (Molecular Pharmacology Branch, DTP, NCI, 2024).
Values joined by “and” are separate entries in the source; they are usually repeats but may differ in a detail not shown here. Equal entries are not always repeated.

Test system: KRAS PDC multicell spheroid viability
Experiment: Anticancer human tumor 825966-067-R-J1-PDC patient-derived colon carcinoma cell line growth inhibition [KRAS2]
Conditions: for viability, T/C: stronger effect = lower value
From the text: Multicellular complex tumor spheroid response to RAS pathway inhibitors in combination with a targeted agents in patient-derived cell lines with oncogenic KRAS variants from multiple cancer types
A high-throughput screen of multi-cell type tumor spheroids was designed to identify active combinations of targeted small molecules and KRAS pathway inhibitors. Complex spheroids include a stromal component modeled by human endothelial cells (HUVEC) and fibroblasts modeled by human mesenchymal stem cells (MSCs). The concentration ranges selected for each drug and investigational agent were based upon clinically achievable concentrations if the clinical Cmax of the agent was known.
Compounds. The drugs and investigational agents: BI-3406 (NSC825286), BAY-293 (NSC824723), batoprotafib (TNO155; NSC825523), sotorasib (AMG 510; NSC818433), MRTX1257 (NSC819558), elimusertib (BAY 1895344; NSC800525), molibresib (GSK525762; NSC774829), temuterkib (LY3214996; NSC803410), venetoclax (NSC766270), alisertib (NSC759677), olaparib (NSC753686), talazoparib (NSC767125), erdafitinib (NSC781556), ipatasertib (NSC767898), cabozantinib (NSC761068), nintedanib (NSC756659), abemaciclib (NSC768073), docetaxel (NSC628503), trametinib (NSC758246), and sapanisertib (NSC764658) were obtained from the National Cancer Institute (NCI) Developmental Therapeutics Program Chemical Repository. The FDA-approved anticancer drug set is available from the Developmental Therapeutics Program. […] The stock solutions were prepared in dimethyl sulfoxide (DMSO, Sigma-Aldrich, St. Louis, MO, cat. D2650) at 800-fold the tested concentration and stored at -70 degrees C prior to their use. All drugs and investigational agents were tested over a range starting from a high concentration at or near the clinical Cmax and decreasing in half-log increments. If the clinical Cmax for an agent had not been determined, the highest concentration tested was 10 microM.
Cell Culture. All cells were maintained in an incubator at 37 degrees C and 5% CO2 with 95% humidity. The PDC lines were cultured according to standard operating procedures established by the NCI PDMR (https://pdmr.cancer.gov/sops/default.htm). Briefly, all PDCs were thawed and cultured in Matrigel-coated flasks prepared with a working solution of 1X Ham's F-12 nutrient mix, without supplementation (Invitrogen, Waltham, MA, cat. 11765054), 100 U/mL penicillin-streptomycin (Invitrogen, cat. 15140122), and 2.5% Matrigel (Corning Inc., Corning, NY, cat. 354248) for the first three passages. All PDCs were cultured in complete DMEM/F-12 media containing advanced DMEM/F-12 (Invitrogen, cat. 12634028), 4.9% defined fetal bovine serum, heat inactivated (HyClone Laboratories Inc., Logan, UT, cat. SH30070.03HI), 389 ng/mL hydrocortisone (Sigma-Aldrich, cat. H4001), 9.7 ng/mL human EGF recombinant protein (Invitrogen, cat. PHG0313), 23.4 microg/mL adenine (Sigma-Aldrich, cat. A2786), 97.3 U/mL penicillin-streptomycin (Invitrogen, cat. 15140122), 1.9 mM L-glutamine (Invitrogen, cat. 25030081), and 9.7 microM Y-27632 dihydrochloride (Tocris Bioscience, Bristol, United Kingdom, cat. 1254). The PDCs were cultured in complete DMEM/F12 media without 9.7 microM Y-27632 dihydrochloride for at least two passages prior to the screen. The established cell line HOP-62 was cultured in RPMI 1640 medium, HEPES (Invitrogen, cat. 22400105) with 10% defined fetal bovine serum (HyClone Laboratories Inc., cat. SH30070.03) and 2 mM L-glutamine (Invitrogen, cat. 25030081). The pooled donor HUVEC were cultured in endothelial cell growth medium 2 (PromoCell, Heidelberg, Germany, cat. C-22011) and the hMSC were cultured in mesenchymal stem cell growth medium 2 (PromoCell, cat. C-28009). For all experiments, HUVEC and hMSC were used at passages </=5, while the malignant cell lines were used at passages </=15. […]

[1] = compound alone, run of 08/19/2021
[2] = compound alone, run of 08/26/2021
[3] = compound alone, run of 09/02/2021
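Further: spheroids exposed to compounds for 7 days.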
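Wherever viability, T/C is given: 100% = DMSO vehicle control viability.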

Compound | viability, T/C (compound 0.1 µM) | IC50 (curve of compound) | viability, T/C (compound 0.316 µM) | viability, T/C (compound 3.16 µM) | viability, T/C (compound 10 µM) | other results
C=CC(=O)N1CCN(c2nc(=O)n(-c3c(C)ccnc3C(C)C)c3nc(-c4c(O)cccc4F)c(F)cc23)C(C)C1 (stereo not drawn) |  |  |  |  |  | IC50 [1]: > 10 µM; IC50 [2]: > 10 µM; IC50 [3]: > 10 µM
C=CC(=O)N1CCN(c2nc(OCC3CCCN3C)nc3c2CCN(c2cccc4cccc(C)c24)C3)CC1CC#N (stereo not drawn) | 87.5% [middle of 17 runs] |  |  |  |  | IC50 [1]: > 3.16 µM; IC50 [2]: > 3.16 µM; IC50 [3]: > 3.16 µM and 2.39 µM
CC(=O)Nc1cccc(-n2c(=O)n(C3CC3)c(=O)c3c(Nc4ccc(I)cc4F)n(C)c(=O)c(C)c32)c1 |  | > 0.0316 µM and 0.028 µM |  |  |  | viability, T/C (compound 0.0001 µM): 96.8% [middle of 5 runs]; viability, T/C (compound 0.000316 µM): 94.2% [middle of 5 runs]; viability, T/C (compound 0.01 µM): 104% [middle of 5 runs]
CC(=O)OC12COC1CC(O)C1(C)C(=O)C(O)C3=C(C)C(OC(=O)C(O)C(NC(=O)OC(C)(C)C)c4ccccc4)CC(O)(C(OC(=O)c4ccccc4)C21)C3(C)C (stereo not drawn) | 18.5% [middle of 5 runs] | < 0.01 µM | 23.7% [middle of 5 runs] | 36.5% [middle of 5 runs] |  | viability, T/C (compound 0.01 µM): 20.3% [middle of 5 runs]; viability, T/C (compound 0.0316 µM): 23.2% [middle of 5 runs]; viability, T/C (compound 1 µM): 28.8% [middle of 5 runs]
CC(C)NCC(C(=O)N1CCN(c2ncnc3c2C(C)CC3O)CC1)c1ccc(Cl)cc1 (stereo not drawn) |  | 2.24 µM [middle of 5 runs] | 113% [middle of 5 runs] | 32.6% [middle of 5 runs] | 10% [middle of 5 runs] | 
CC(C)n1nc(-c2ccc3oc(N)nc3c2)c2c(N)ncnc21 |  | > 0.1 µM |  |  |  | viability, T/C (compound 0.00316 µM): 127% [middle of 5 runs]
CC1(C)CCC(CN2CCN(c3ccc(C(=O)NS(=O)(=O)c4ccc(NCC5CCOCC5)c([N+](=O)[O-])c4)c(Oc4cnc5[nH]ccc5c4)c3)CC2)=C(c2ccc(Cl)cc2)C1 | 90.1% [middle of 5 runs] | 2.03 µM [middle of 5 runs] | 102% [middle of 5 runs] | 29.4% [middle of 5 runs] | 7.19% [middle of 5 runs] | 
CC1COCCN1c1cc(-c2ccnn2C)c2ccnc(-c3ccn[nH]3)c2n1 (stereo not drawn) |  |  |  | 60% [middle of 5 runs] |  | viability, T/C (compound 0.01 µM): 110% [middle of 5 runs]
CC1OCC2(CCN(c3cnc(Sc4ccnc(N)c4Cl)c(N)n3)CC2)C1N (stereo not drawn) | 92.7% [middle of 19 runs] | 9.31 µM and 8.73 µM and > 10 µM |  |  |  | viability, T/C (compound 0.0316 µM): 82% and 80.9% and 85.5%; IC50 [1]: > 10 µM and 9.29 µM; IC50 [2]: 7.63 µM [middle of 5 runs]; IC50 [3]: > 10 µM and 8.08 µM
CCN1CCN(Cc2ccc(Nc3ncc(F)c(-c4cc(F)c5nc(C)n(C(C)C)c5c4)n3)nc2)CC1 | 95.5% [middle of 5 runs] | > 1 µM | 117% [middle of 5 runs] |  |  | viability, T/C (compound 0.00316 µM): 98% [middle of 4 runs]; viability, T/C (compound 0.01 µM): 90.6% [middle of 5 runs]
CCNC(=O)CC1N=C(c2ccc(Cl)cc2)c2cc(OC)ccc2-n2c(C)nnc21 (stereo not drawn) |  | > 10 µM |  |  | 83.8% [middle of 5 runs] | 
CN(C)C/C=C/C(=O)Nc1cc2c(Nc3ccc(F)c(Cl)c3)ncnc2cc1O[C@H]1CCOC1 | 105% [middle of 5 runs] | > 0.1 µM |  |  |  | 
CNCc1ccccc1-c1csc(C(C)Nc2nc(C)nc3cc(OC)c(OC)cc23)c1 (stereo not drawn) |  |  |  |  | 0.22% [middle of 14 runs] | IC50 [1]: 2.3 µM [middle of 6 runs]; IC50 [2]: 3.18 µM [middle of 5 runs]
COC(=O)c1ccc2c(C(=Nc3ccc(N(C)C(=O)CN4CCN(C)CC4)cc3)c3ccccc3)c(O)[nH]c2c1 | 90.7% [middle of 5 runs] | 1.24 µM [middle of 5 runs] | 92.2% [middle of 5 runs] | 0.53% [middle of 5 runs] | 0.29% [middle of 4 runs] | viability, T/C (compound 0.0316 µM): 93.7% [middle of 5 runs]
COc1cc(Nc2ncc3c(n2)-c2ccc(Cl)cc2C(c2c(F)cccc2OC)=NC3)ccc1C(=O)O | 103% [middle of 5 runs] | > 10 µM |  | 119% [middle of 5 runs] | 132% [middle of 5 runs] | viability, T/C (compound 1 µM): 114% [middle of 5 runs]
COc1cc(OC)cc(N(CCNC(C)C)c2ccc3ncc(-c4cnn(C)c4)nc3c2)c1 | 89.2% [middle of 5 runs] |  | 91.1% [middle of 5 runs] |  |  | viability, T/C (compound 0.0316 µM): 92.5% [middle of 5 runs]; viability, T/C (compound 1 µM): 95.6% [middle of 5 runs]
COc1cc2nc(C)nc(NC(C)c3cc(N)cc(C(F)(F)F)c3)c2cc1OC1CCOC1 (stereo not drawn) |  |  |  |  |  | IC50 [2]: 5.81 µM [middle of 5 runs]; IC50 [3]: > 10 µM and 7.54 µM
COc1cc2nccc(Oc3ccc(NC(=O)C4(C(=O)Nc5ccc(F)cc5)CC4)cc3)c2cc1OC |  | 1.75 µM [middle of 5 runs] | 86.7% [middle of 5 runs] | 8.3% [middle of 5 runs] | 7.11% [middle of 5 runs] | viability, T/C (compound 0.0316 µM): 102% [middle of 5 runs]; viability, T/C (compound 1 µM): 83.7% [middle of 5 runs]
Cn1nccc1Nc1nccc(-c2cc3c(s2)C(C)(C)N(CCN2CCOCC2)C3=O)n1 | 94.8% [middle of 5 runs] | > 10 µM | 109% [middle of 5 runs] | 96% [middle of 5 runs] | 81.8% [middle of 5 runs] | viability, T/C (compound 0.0316 µM): 90.9% [middle of 5 runs]
Cn1ncnc1[C@H]1c2n[nH]c(=O)c3cc(F)cc(c23)N[C@@H]1c1ccc(F)cc1 |  | > 0.1 µM |  |  |  | viability, T/C (compound 0.01 µM): 82.8% [middle of 5 runs]
O=C(c1cc(Cc2n[nH]c(=O)c3ccccc23)ccc1F)N1CCN(C(=O)C2CC2)CC1 | 88.5% [middle of 5 runs] | > 10 µM |  | 79.6% [middle of 5 runs] |  | 
